# Assay results as given in patent US9555021B2, “Pharmaceutical compositions comprising (3-(1-(1H-imidazol-4-yl)ethyl)-2-methylphenyl)methanol” (Allergan, Inc., priority 2009, dated 2017).
# How the values were obtained:
# [1] = tested on: mice; settings: as described in Gil et al., Br J Pharmacol 153: 769-74 (2008); cited from earlier work
# [2] = target: T1, alpha-2B adrenergic receptor (Homo sapiens, UniProt P18089); test: FLIPR assay (intracellular calcium), alpha-2B adrenergic receptor; format: cell-based; settings: for alpha-2B activity in words (agonist/antagonist): Table 2; for α-2B relative efficacy as compared to norepinephrine: agonism, value in parenthesis; for EC50: first line of cell, unit inferred, compounds tested at 0.64 nM-10,000 nM, read-out: α-2B agonism EC50
# T1 construct: expressed in transfected cells
# T1 sequence (P18089 1-450): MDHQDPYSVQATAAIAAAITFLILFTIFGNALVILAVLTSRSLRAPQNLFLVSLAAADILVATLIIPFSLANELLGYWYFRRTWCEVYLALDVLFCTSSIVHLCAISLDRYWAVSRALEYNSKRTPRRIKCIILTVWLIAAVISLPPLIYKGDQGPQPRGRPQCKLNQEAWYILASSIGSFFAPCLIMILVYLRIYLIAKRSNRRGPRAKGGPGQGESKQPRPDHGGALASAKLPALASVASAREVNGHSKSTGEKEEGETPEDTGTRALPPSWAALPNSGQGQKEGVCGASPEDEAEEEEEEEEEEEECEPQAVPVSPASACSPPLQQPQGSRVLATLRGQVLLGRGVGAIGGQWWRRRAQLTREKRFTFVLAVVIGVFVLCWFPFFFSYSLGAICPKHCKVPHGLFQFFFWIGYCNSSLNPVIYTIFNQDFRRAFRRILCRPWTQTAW
# Experimental: (§1) Compounds of the invention were evaluated in a FLIPR assay in order to determine their specificity for five alpha adrenergic receptors. The FLIPR assay measures release of intracellular calcium in response to receptor activation. Cells are preloaded with a calcium sensitive dye that fluoresces in response to calcium. Receptors that activate the G protein, Gq, elicit the response. Alpha adrenergic receptors, which normally couple to Gi, trigger the increase in intracellular calcium when coexpressed with a hybrid Gq protein containing a Gi receptor recognition domain, designated Gq/i5 (Conklin et al., Nature 363:274-6 (1993)) or with the promiscuous G protein Ga16.
# (§2) The assay was performed essentially as follows. HEK 293 cells stably expressing an alpha-2 receptor and either the chimeric G-protein Gqi5 or the promiscuous G protein G16 were plated in poly-D-lysine coated 384-well plates at 20,000-25,000 cells per well and grown overnight in DMEM supplemented with 10% FBS. Cells were washed twice with HBSS/HEPES Buffer (1× Hanks Buffered Salt Solution, 20 mM HEPES, pH 7.4) prior to the addition of Fluo-4-AM (4 μM Fluo-4-AM, 0.04% pluronic acid in HBSS/HEPES Buffer), a calcium-sensitive dye. Cells were loaded with dye for 60 minutes at 37° C., then washed 4 times with HBSS/HEPES Buffer. The reaction was initiated by the addition of the appropriate dilutions of compounds (final concentration between 0.64 nM-10,000 nM) and the transient calcium signal captured. The peak height of the calcium curve was determined and utilized for calculation of EC50 and efficacy using ActivityBase.
# [3] = target: T2, alpha-2A adrenergic receptor (Homo sapiens, UniProt P08913); test: FLIPR assay (intracellular calcium), alpha-2A adrenergic receptor; format: cell-based; settings: for alpha-2A activity in words (agonist/antagonist): Table 2; for α-2A relative efficacy as compared to norepinephrine: agonism; for EC50: first line of cell, compounds tested at 0.64 nM-10,000 nM, read-out: α-2A agonism EC50
# T2 construct: expressed in transfected cells
# T2 sequence (P08913 1-465): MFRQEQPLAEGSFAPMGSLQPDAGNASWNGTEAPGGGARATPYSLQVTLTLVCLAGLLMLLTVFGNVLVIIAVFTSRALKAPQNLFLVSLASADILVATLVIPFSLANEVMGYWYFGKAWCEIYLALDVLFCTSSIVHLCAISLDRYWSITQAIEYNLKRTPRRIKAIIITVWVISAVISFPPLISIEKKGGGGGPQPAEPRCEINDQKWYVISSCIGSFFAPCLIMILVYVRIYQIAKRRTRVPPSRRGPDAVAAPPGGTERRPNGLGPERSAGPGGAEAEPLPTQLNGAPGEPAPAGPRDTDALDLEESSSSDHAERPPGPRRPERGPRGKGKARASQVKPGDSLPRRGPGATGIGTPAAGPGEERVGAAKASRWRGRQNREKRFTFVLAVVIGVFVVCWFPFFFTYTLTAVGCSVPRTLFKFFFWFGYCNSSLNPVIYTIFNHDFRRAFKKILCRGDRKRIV
# Experimental: as §1, §2
# [4] = target: T3, alpha-2C adrenergic receptor (Homo sapiens, UniProt P18825); test: FLIPR assay (intracellular calcium), alpha-2C adrenergic receptor; format: cell-based; settings: for alpha-2C activity in words (agonist/antagonist): Table 2; for α-2C relative efficacy as compared to norepinephrine: agonism, value in parenthesis; for EC50: first line of cell, unit inferred, compounds tested at 0.64 nM-10,000 nM, read-out: α-2C agonism EC50
# T3 construct: expressed in transfected cells
# T3 sequence (P18825 1-462): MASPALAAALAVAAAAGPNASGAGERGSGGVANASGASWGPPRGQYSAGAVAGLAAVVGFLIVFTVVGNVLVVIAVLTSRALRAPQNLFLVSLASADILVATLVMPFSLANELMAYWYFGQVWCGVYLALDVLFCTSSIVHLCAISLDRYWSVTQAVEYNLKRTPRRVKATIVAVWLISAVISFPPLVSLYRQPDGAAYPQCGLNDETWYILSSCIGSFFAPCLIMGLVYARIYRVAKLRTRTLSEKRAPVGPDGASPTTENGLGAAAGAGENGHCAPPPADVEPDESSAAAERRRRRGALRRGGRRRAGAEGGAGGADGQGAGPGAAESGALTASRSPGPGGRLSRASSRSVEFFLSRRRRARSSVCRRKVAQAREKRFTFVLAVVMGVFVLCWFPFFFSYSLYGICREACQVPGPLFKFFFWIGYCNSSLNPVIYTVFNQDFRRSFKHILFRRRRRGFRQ
# Experimental: as §1, §2
# [5] = target: T4, alpha-1A adrenergic receptor (Homo sapiens, UniProt P35348); test: FLIPR assay (intracellular calcium), alpha-1A adrenergic receptor; format: cell-based; settings: for alpha-1A activity in words (agonist/antagonist): Table 2; for α-1A relative efficacy as compared to norepinephrine: agonism; for EC50: first line of cell, HEK 293 cells, unit inferred, compounds tested at 0.64 nM-10,000 nM, read-out: α-1A agonism EC50
# T4 sequence (P35348 1-466): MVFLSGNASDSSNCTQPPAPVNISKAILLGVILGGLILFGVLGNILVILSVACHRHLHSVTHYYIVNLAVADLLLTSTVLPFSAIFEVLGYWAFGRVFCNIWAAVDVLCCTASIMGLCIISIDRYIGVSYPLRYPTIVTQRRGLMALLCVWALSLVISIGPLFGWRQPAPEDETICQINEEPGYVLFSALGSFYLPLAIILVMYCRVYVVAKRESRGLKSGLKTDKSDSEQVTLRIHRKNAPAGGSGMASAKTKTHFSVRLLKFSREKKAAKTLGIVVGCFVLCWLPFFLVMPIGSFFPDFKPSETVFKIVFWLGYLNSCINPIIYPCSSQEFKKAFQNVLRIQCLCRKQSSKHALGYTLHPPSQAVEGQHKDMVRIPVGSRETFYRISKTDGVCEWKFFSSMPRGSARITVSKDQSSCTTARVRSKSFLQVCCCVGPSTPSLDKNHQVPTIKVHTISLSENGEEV
# Experimental: as §1, §2
# [6] = target: T5, alpha-1B adrenergic receptor (Homo sapiens, UniProt P35368); test: FLIPR assay (intracellular calcium), alpha-1B adrenergic receptor; format: cell-based; settings: unit inferred; for EC50: first line of cell, compounds tested at 0.64 nM-10,000 nM, read-out: α-1B agonism EC50; for IC50: second line of cell, read-out: α-1B antagonism IC50
# T5 sequence (P35368 1-520): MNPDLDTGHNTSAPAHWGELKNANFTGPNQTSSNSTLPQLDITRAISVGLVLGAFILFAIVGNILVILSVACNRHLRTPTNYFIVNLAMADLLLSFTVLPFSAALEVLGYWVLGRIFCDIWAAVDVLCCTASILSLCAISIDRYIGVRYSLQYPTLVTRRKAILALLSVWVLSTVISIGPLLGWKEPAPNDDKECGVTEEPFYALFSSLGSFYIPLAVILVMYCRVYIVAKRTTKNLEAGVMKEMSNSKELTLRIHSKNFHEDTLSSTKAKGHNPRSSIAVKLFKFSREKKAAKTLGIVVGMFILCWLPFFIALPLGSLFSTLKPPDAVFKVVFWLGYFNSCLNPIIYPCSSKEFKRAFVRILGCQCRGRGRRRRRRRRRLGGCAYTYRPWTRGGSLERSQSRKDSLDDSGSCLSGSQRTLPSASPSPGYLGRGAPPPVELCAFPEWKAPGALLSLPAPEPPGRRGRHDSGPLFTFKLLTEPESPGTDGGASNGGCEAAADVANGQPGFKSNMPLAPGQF
# Experimental: as §1, §2
# [7] = FIG. 3 / FIG. 4
# Experimental: The tactile hypersensitivity of 5-6 mice (weighing approx. 25 g) per group was scored every five minutes between 15 and 50 minutes following intraperitoneal dosing with 300 ng/kg (in a 1 mL/kg volume) sulprostone (Cayman Chemical Company, Ann Arbor, Mich.). Compound I or vehicle was administered intraperitoneally 15 minutes prior to sulprostone.
# (§3) Tactile hypersensitivity was quantified by scoring the response of mice to light stroking of their flanks with a small paintbrush, which is not normally painful.
# The computer analyses this movement and records total activity. Locomotor activity relative to vehicle-treated animals was expressed as a percentage; percentage sedation was calculated as 100% minus the percent locomotor activity. Statistical calculations of significance for in vivo studies were done using a two-tailed Student's t-test.
# [8] = tested on: mice; test: Locomotor activity (sedation); format: in vivo; settings: 30 minutes after dosing
# [9] = tested on: mice; test: Sulprostone-induced tactile hypersensitivity; format: in vivo; settings: 0.3 mg/kg intraperitoneally 15 minutes prior to sulprostone
# Experimental: The tactile hypersensitivity of 5-6 mice (weighing approx. 25 g) per group was scored every five minutes between 15 and 50 minutes following intraperitoneal dosing with 300 ng/kg (in a 1 mL/kg volume) sulprostone (Cayman Chemical Company, Ann Arbor, Mich.).
# as §3
# [10] = second line of cell, value in parenthesis
SMILES,activity in sulprostone-induced tactile hypersensitivity model [1],alpha-2B activity in words (agonist/antagonist) [2],α-2B relative efficacy as compared to norepinephrine [2],EC50 [2],alpha-2A activity in words (agonist/antagonist) [3],α-2A relative efficacy as compared to norepinephrine ([3]; value in parenthesis),EC50 ([3]; unit inferred),alpha-2C activity in words (agonist/antagonist) [4],α-2C relative efficacy as compared to norepinephrine [4],EC50 [4],alpha-1A activity in words (agonist/antagonist) [5],α-1A relative efficacy as compared to norepinephrine ([5]; value in parenthesis),EC50 [5],EC50 [6],margin of safety for pain reduction vs. sedation [7],IC50 [6],also measured
CN(C)CCC=C1c2ccccc2CCc2ccccc21 [amitriptyline],active,–,–,–,–,–,–,–,–,–,–,–,–,–,–,–,–
"Cc1c(CO)cccc1[C@H](C)c1c[nH]cn1 [Compound III, (S)-(3-(1-(1H-imidazol-4-yl)ethyl)-2-methylphenyl)methanol]",–,alpha-2 pan agonist,(.93),3 nM,alpha-2 pan agonist,(.9),72 nM,alpha-2 pan agonist,(1),8 nM,some alpha-1A agonist activity,(.76),445 nM,> 8300 nM,–,–,–
NCC1(CC(=O)O)CCCCC1 [gabapentin],active,–,–,–,–,–,–,–,–,–,–,–,–,–,–,–,–
Cc1cccc([C@H](C)c2cnc[nH]2)c1C [dexmedetomidine],–,–,–,–,–,–,–,–,–,–,–,–,–,–,no margin of safety,–,–
"Cc1c(CO)cccc1C(C)c1c[nH]cn1 (racemic) [Compound I, (3-(1-(1H-imidazol-4-yl)ethyl)-2-methylphenyl)methanol]",–,alpha-2 pan agonist,(.94),5.5 nM,alpha-2 pan agonist,(.75),53.7 nM,alpha-2 pan agonist,(.98),15.7 nM,some alpha-1A agonist activity,(.69),1630 nM,> 10000 nM,> 10 fold,> 8300 nM,sedation (locomotor activity) ([8]; 1 mg/kg intraperitoneal): minimally sedating; sedation (locomotor activity) ([8]; 3 mg/kg intraperitoneal): highly sedating; reduction in sulprostone induced hypersensitivity [9]: back to control levels
"Cc1c(CO)cccc1[C@@H](C)c1c[nH]cn1 [Compound II, (R)-(3-(1-(1H-imidazol-4-yl)ethyl)-2-methylphenyl)methanol]",–,agonist,(.68),52.8 nM,antagonist,–,> 10000 nM,agonist,(.64),171 nM,–,–,> 10000 nM,> 10000 nM,–,> 8300 nM,"α-2A percent antagonism [3, 10]: (96%); IC50 ([3]; second line of cell, unit inferred, read-out: α-2A antagonism IC50): 144 nM; α-1A percent antagonism [5, 10]: (39%)"
